Experimental data taken from US6011008A, “Conjugates of biologically active substances” (priority 1998, dated 2000).

What was measured:
[1] = In vitro release (dialysis tubing method); format: physicochemical; conditions: for release of the conjugated drug: after 24 hours, buffer pH 7.4 at 37° C.; for drug released from the dialysis tube: after 5 hours, buffer pH 7.4, 37° C.
Protocol: A solution of the Schiff base or the amine conjugates (100 mg in 5 ml phosphate buffer pH7.4) was placed into a cellulose dialysis tubing of 12,000 MW cut off and the bag was placed into a 100 ml. buffer solution at 37° C. The drug release to the solution was monitored by UV absorption at 280 nm, unless otherwise indicated.
The release of DOX from the AG conjugates was determined using dialysis tubing as described above. The DOX-AG imine conjugate, the DOX-AG amine conjugate and a solution of the native drug were studied. The amount of DOX found in the solution was 2, 5, 8, 10 and 12% of the total dose after 2, 4, 7, 12 and 32 hours, respectively.
The Mitomycin release into the solution was measured as described above. The amount of drug found in the solution was 1, 2, 4, 5 and 8% of the total dose after 2, 4, 7, 12 and 32 hours, respectively.
In vitro release of Somatostatin was determined as described in the Methods and the somatostatin concentration was determined by the Folin-Lowry method for peptide analysis^(10).
Insulin was conjugated to oxidized AG (50 mg with 100 mg pure oxidized AG) using the method described above for somatostatin. The conjugation yield was about 75% as determined by nitrogen analysis and the Folin-Lowry method. The Schiff base derivative released about 25% of its drug content after 24 hours in phosphate buffer solution at […].

Staphylococcus Aureus = experiment: Antimicrobial activity, filter paper on seeded agar plate; format: cell-based; conditions: Staphylococcus Aureus (10^5 /ml), 24 hours at 37° C., 6 mm filter paper, equivalent amounts of the drug
Protocol: (§1) The antimicrobial activity of these conjugates was determined as described above. Saline solutions of equivalent amounts of the drug in free form or the imine or amine AG conjugates were absorbed onto a circular filter paper (6 mm in diameter) and placed on a seeded agar plate with Staphylococcus Aureus (10^5 /ml) and E. Coli incubated for 24 hours at 37° C. […] Similar results were obtained for the Polymyxin derivatives.

E. Coli = experiment: as above; format: cell-based; conditions: 24 hours at 37° C., 6 mm filter paper, equivalent amounts of the drug
Protocol: as §1

Escherichia coli = Escherichia coli agar plates, after 24 hours of incubation
Protocol: The antimicrobial activity of the conjugates was assayed by a cup method^(9) (agar plate method) using Escherichia coli agar plates and measuring the zone of growth inhibition.

In the case of “Insulin-AG Schiff base derivative: Insulin conjugated to pure oxidized AG, Schiff base”, the “release of drug content” value ([1]; after 24 hours in phosphate buffer solution at […].) is reported as “about 25%”.
For `NC[C@H]1O[C@H](O[C@H]2[C@H](O)[C@@H](O[C@H]3O[C@H](CO)[C@@H](O)[C@H](N)[C@H]3O)[C@H](N)C[C@@H]2N)[C@H](N)C[C@@H]1O` [tobramicin], the inhibition zone (Staphylococcus Aureus) was > 10 mm and the inhibition zone (E. Coli) was > 10 mm.
With gentamicin the inhibition zone (Staphylococcus Aureus) was > 10 mm and the inhibition zone (E. Coli) was > 10 mm.
In the case of “Somatostatin-AG amine conjugate: Somatostatin-AG Schiff base hydrogenated to the amine conjugate using NaBH4”, the “release of the conjugated drug” value [1] is reported as “did not release any”.
In the case of “Somatostatin-AG imine conjugate: Somatostatin conjugated to pure oxidized AG via imine bond”, the “drug released from the dialysis tube” value [1] is reported as “about 5%” and the “release of the conjugated drug” value [1] is reported as ~18%.
For `CO[C@@]12[C@H](COC(N)=O)C3=C(C(=O)C(C)=C(N)C3=O)N1C[C@@H]1N[C@@H]12` [Mitomycin C], the inhibition zone (Escherichia coli) was > 10 mm.
With `COc1cccc2c1C(=O)c1c(O)c3c(c(O)c1C2=O)C[C@@](O)(C(=O)CO)C[C@@H]3O[C@H]1C[C@H](N)[C@H](O)[C@H](C)O1` [DOX, Doxorubicin] the “drug released from the dialysis tube” value [1] was 90%.
